The values below come from patent US20230248723A1, “PYRROLO[2,3-B]PYRAZINE COMPOUNDS AS CCCDNA INHIBITORS FOR THE TREATMENT OF HEPATITIS B VIRUS (HBV) INFECTION” (Hoffmann-La Roche Inc., priority 2017, published 2023).

Each structure is given as a SMILES string. Read-outs that look alike come from different tables or passages of the source.

What all share (assay type): cell-based
The test system of series [1] is albumin (secreted, cellular toxicity marker). In words: Albumin (in vitro cellular tox marker), multiplex assay, PHH. As to conditions: human, primary human hepatocytes (PXB-PHH) infected with HBV, patient-derived HBV (GT D), read-out: In vitro tox albumin IC50 (μM) Median. The method, then: (§1) Fresh primary human hepatocytes (PXB-PHH) harvested from humanized mice (uPA/SCID mice)—herein called PHH—were obtained from PhoenixBio Co., Ltd (Japan). Cells were seeded on a collagen I-coated plate at the following cell density: 35,000 cells/well (384-well), 70,000 cells/well (96-well), or, 400,000 cells/well (24-well) in modified hepatocyte clonal growth medium (dHCGM). dHCGM is a DMEM medium containing 100 U/ml Penicillin, 100 μg/ml Streptomycin, 20 mM Hopes, 44 mM NaHCO3, 15 μg/ml L-proline, 0.25 μg/ml insulin, 50 nM Dexamethazone, 5 ng/ml EGF, 0.1 mM Asc-2P, 2% DMSO and 10% FBS (Ishida et al., 2015). Cells were cultured at 37° C. incubator in a humidified atmosphere with 5% CO2. Culture medium was replaced 24 h post-plating and every 2 days until harvest.
(§2) Following 4 day of maturation with 1 μM MB-1, HLC were incubated with HBV (purified from CHB individuals) at multiplicity of infection (MOI) 10-40 without PEG for 24 hr; virus inoculum was removed the following day. […] Compound treatment in HLC and PHH was started at day 3 post infection. Compound (in powder) was dissolved in DMSO; the final concentration of DMSO added to cells is 1%. Fresh compound was replenished every 2 day until cells were harvested at day 10 (PHH), or day 14 (HLC). Compound effect on HBV and cellular toxicity was measured by multiplex assay (HBsAg, HBeAg, albumin), branched DNA (pgRNA), or digital PCR (cccDNA) and depicted as % of inhibition compared to DMSO control. Graphs were prepared using Spotfire software.
(§3) A custom, Luminex-based multiplex assay that simultaneously measured HBeAg, albumin, and HBsAg was developed by Radix BioSolutions (Georgetown, Tex.). This is a sandwich immunoassay; each capture antibody was coupled with xMAP™ Luminex magnetic beads. The dynamic ranges of analyte detection are as follows: HBeAg (1-316 ng/ml), albumin (3.1-10,000 ng/ml), and HBsAg (0.1-100 ng/ml) with coefficient variant (CV) […]. Samples were read on FlexMAP 3D (Luminex) and analyzed by Genedata software.

In series [2] the test system is HBeAg. Nature of the series: HBeAg, multiplex assay, HBV-infected PHH. As to conditions: for IC50: Hepatitis B virus, read-out: HBeAg IC50 (μM) Median, PHH, patient-derived HBV (GT D). The method, then:
as §1, §2, §3

In series [3] the test system is cccDNA. Nature of the series: cccDNA assay (digital PCR), HBV-infected PHH. As to conditions: for IC50: Hepatitis B virus, patient-derived HBV (GT D), read-out: cccDNA IC50 (μM) Median. The protocol:
as §1
Following 4 day of maturation with 1 μM MB-1, HLC were incubated with HBV (purified from CHB individuals) at multiplicity of infection (MOI) 10-40 without PEG for 24 hr; virus inoculum was removed the following day. HBV infection in PHH was performed at MOI 40+4% PEG. Compound treatment in HLC and PHH was started at day 3 post infection. Compound (in powder) was dissolved in DMSO; the final concentration of DMSO added to cells is 1%. Fresh compound was replenished every 2 day until cells were harvested at day 10 (PHH), or day 14 (HLC). Compound effect on HBV and cellular toxicity was measured by multiplex assay (HBsAg, HBeAg, albumin), branched DNA (pgRNA), or digital PCR (cccDNA) and depicted as % of inhibition compared to DMSO control. Graphs were prepared using Spotfire software.
HBV-infected cells (in 384- or 96-well plate) were lysed with Cells-to-CT Lysis Reagents according to manufacturer's instruction (Thermo Scientific). To remove excess of RC-DNA, samples were digested with T5 exonuclease (10 U) (New England Biolabs), at 37° C. for 1 hr; enzyme was inactivated by heating the samples at 80° C. for 15 min. DNA samples (1.2 μl) were added into the digital PCR Master Mix (QuantStudio Digital PCR Kit, Thermo Scientific) containing cccDNA primers 5′-[…] (forward), 5′-[…] (reverse), and […] (probe) (Werle-Lapostolle et al., 2004) in a total volume 5 μl, and loaded into dPCR array using AccuFill System (AB). Each sample was loaded into 4 subarrays/256 through-holes. Digital PCR assay was run on QuantStudio 12K Flex (AB) and data was analyzed by Digital Suite Software (AB).

Series [4] relates to pgRNA. In words: pgRNA assay (branched DNA), HBV-infected PHH. As to conditions: patient-derived HBV (GT D), read-out: pgRNA IC50 (μM) Median. The protocol:
as §1, §2
Levels of pgRNA in infected cells (96-well plate) were measured using QuantiGene Singleplex 2.0 assay (Affymetrix), a hybridization-based assay that utilizes the xMAP™ Luminex magnetic beads and branched DNA (bDNA) signal amplification technology. The assay is performed in 96-well plate according to manufacturer's recommendation. Briefly, cells were lysed and lysates were incubated with HBV probe sets panel at 50-55° C. for 30 min then stored at −80° C. Signal amplification is achieved via sequential hybridization of PreAmplifier, Amplifier, and Label Probe. After adding Streptavidin phycoerythrin (SAPE) substrate, the signal is read using a FlexMap 3D (Luminex) instrument.

The test system of series [5] is HBsAg. In words: HBsAg, multiplex assay, HBV-infected PHH. As to conditions: for IC50: Hepatitis B virus, read-out: HBsAg IC50 (μM) Median, PHH, patient-derived HBV (GT D). The protocol: as §1, §2, §3
Series [6] has as its system HBV DNA. In words: HBV DNA in culture medium of HBV-infected PHH. As to conditions: PHH, patient-derived HBV GT D, MOI 40, treatment from day 3, day 10 pi. From the text:
FIG. 8: Establishment of dPCR assay for cccDNA quantification. […] A 3.2-kb, linearized plasmid HBV is used as a standard curve for relative quantification of HBV DNA by TaqMan-PCR. […] (B) Testing primer & PCR specificity and removal of excess RC-DNA. In contrast to TaqMan-PCR (relative quantification method), digital PCR (dPCR) is an absolute quantification method without the need of standard curve. […] First step—Testing primer and PCR specificity. Serum-derived HBV (contains RC-DNA, devoid of cccDNA) was used as a DNA template for dPCR using 2 sets of primers (for HBV core and cccDNA region) (Werle-Lapostolle et al., 2004). Samples were amplified by dPCR on QuantStudio 12K Flex Real-Time PCR System (AB); 4 subarrays (256 through-holes) were used for each sample. […] Second step—Removal of excess RC-DNA. PHH seeded in 96-well were infected with HBV. At day 6 pi, cell lysates were digested with Plasmid safe, ATP-dependent, DNAse (PSAD), T5 exonuclease, or, T5 exonuclease followed by EcoRI, for 1 hr at 37° C. Samples were amplified by dPCR using cccDNA primers on QuantStudio 12K Flex Real-Time PCR System (AB); 4 subarrays (256 through-holes) were used for each sample. […] Fresh medium and compound was replenished every 2 day. At day 10 pi, culture media were harvested and measured for HBV DNA, HBsAg, and HBeAg. Albumin was used as a surrogate of in vitro tox marker. Cells were lysed and treated with T5 exonuclease, cccDNA was then measured by dPCR on QuantStudio 12K Flex Real-Time PCR System (AB); 4 subarrays (256 through-holes) were used for each sample. […] Cells were treated with compounds at the indicated concentrations starting from day 3 post infection (patient-derived HBV, GT D). Fresh medium and compound was replenished every 2 day. Cells were harvested at day 10 pi; viral markers and albumin were measured from culture medium.
HBV from sera of CHB individuals were purified using OptiPrep™ (Axis-Shield, Norway) density gradient. Briefly, OptiPrep™ stock solution (60%) was diluted to 50% and 10% in PBS; equal volume of each solution was then added into SW41 tubes (BD Biosciences). Linear gradient was performed by placing the tubes on Gradient Master 108™ (Biocomp) at setting: 800, 25 rpm for 30″. Two hundred microliter (200 μl) of serum was overlaid on the top of gradient and samples were centrifuged at 100,000×g for 2 hours at 4° C. […] Fractions containing the peak of HBV DNA were pooled and used as virus inoculum for all infection experiments. All fractions were stored at −80° C. until used.
Fresh primary human hepatocytes (PXB-PHH) harvested from humanized mice (uPA/SCID mice)—herein called PHH—were obtained from PhoenixBio Co., Ltd (Japan).

[7] abbreviates: PHH, patient-derived HBV GT D, MOI 40, treatment from day 3, day 10 pi.

What is called IC50 is the midpoint of a concentration-inhibition curve. Take `CC(C)(CO)NC(=O)c1c[nH]c2ncc(C3CC3)nc12` [compound 1]: in series [1], the IC50 at 7 days is 18.7 µM. Also, the IC50 in series [2] came to 0.17 µM; in series [3] it was 52.7 µM; in series [4] (Hepatitis B virus), 14.2 µM; in series [5], 0.17 µM.

For the compound `O=C(NC1(CO)CCCC1)c1c[nH]c2ncc(C3CC3)nc12` [compound 2], the half-maximal inhibitory concentration (IC50) at 7 days in series [1] is 24.2 µM. Besides, the figures for the IC50 in series [2], in series [3] and in series [5] were 0.68 µM, 30.1 µM and 0.68 µM, respectively.

Take `CC(C)(O)C(CCO)NC(=O)c1c[nH]c2ncc(C3CC3)nc12` (stereo not drawn) [compound 3]: in series [1], the IC50 at 7 days is 33.4 µM. Besides, the 50% inhibitory concentration (IC50) in series [2] came to 3.58 µM; in series [3], 43.7 µM; in series [4] (Hepatitis B virus), 12.8 µM; in series [5], 3.62 µM.

`CC[C@@H](CO)NC(=O)c1c[nH]c2ncc(C3CC3)nc12` [compound 4]: in series [1], the concentration for half-maximal inhibition (IC50) at 7 days stood at 48 µM. Moreover, the half-inhibitory concentration (IC50) in series [2] was 0.68 µM; in series [3] it was 63.7 µM; in series [4] (Hepatitis B virus) it was < 10 µM; in series [4], 6.93 µM; in series [5], 0.68 µM.

As for `C[C@H](CO)NC(=O)c1c[nH]c2ncc(C3CC3)nc12` [compound 5], the IC50 at 7 days in series [1] was 135 µM. Further, the half-maximal inhibitory concentration (IC50) is 2.95 µM in series [2], 160 µM in series [3], ≥ 100 µM in series [4] (Hepatitis B virus) and 5.61 µM in series [5].

For the compound `O=C(NC1(CO)CCOCC1)c1c[nH]c2ncc(C3CC3)nc12` [compound 6], in series [1], the IC50 at 7 days was ≥ 166 µM. Further, the IC50 in series [2] was 0.49 µM; in series [3], ≥ 166 µM; in series [4] (Hepatitis B virus), 15.7 µM; in series [5], 0.75 µM.

On to `C[C@@H](CO)NC(=O)c1c[nH]c2ncc(C3CC3)nc12` [compound 8], for which, in series [1], the IC50 at 7 days is 31.9 µM. Moreover, the IC50 in series [2] was 2.29 µM; in series [3] it was 30.8 µM; in series [5], 1.22 µM.

For the compound `CC(C)(O)C(C)(C)NC(=O)c1c[nH]c2ncc(C3CC3)nc12` [compound 9], in series [1], the IC50 at 7 days came to 21.3 µM. For the same compound, the IC50 came out at 0.68 µM in series [2], 49.2 µM in series [3] and 0.51 µM in series [5].

Take `C=C1[C@H](CO)[C@@H](O)C[C@@H]1n1cnc2c(=O)[nH]c(N)nc21` [entecavir, reference compound]: the “effect on HBeAg (other viral markers)” value in series [2] (setting [7]) is “no effect”. In addition, the “effect on cccDNA (other viral markers)” value in series [3] (patient-derived HBV GT D, MOI 40, treatment from day 3, day 10 pi, dPCR) is “no effect”. For the same compound, the “effect on HBV DNA” value in series [6] is “highly potent”. For the same compound, the “effect on HBsAg (other viral markers)” value in series [5] (setting [7]) is reported as “no effect”.
